This passage reports inhibition results from US20090197880A1 (Genelabs Technologies, Inc., priority 2007, published 2009).

The first assay can be described thus: HCV replicon assay (luciferase) in ET (Huh-lucubineo-ET) cell line. Format: cell-based. The conditions noted are these: Hepatitis C virus; tested at 5 μM; inhibition of replication relative to no compound control; ET replicon cells, luciferase 48-72 hours. An excerpt:
A cell line, ET (Huh-lucubineo-ET) was used for screening of compounds, or pharmaceutically acceptable salts or solvates, described herein for inhibition of HCV RNA dependent RNA polymerase. The ET cell line was stably transfected with RNA transcripts harboring a I389luc-ubi-neo/NS3-3′/ET; replicon with firefly luciferase-ubiquitin-neomycin phosphotransferase fusion protein and EMCV-IRES driven NS3-5B polyprotein containing the cell culture adaptive mutations (E1202G; T1280I; K1846T) (Krieger at al, 2001 and unpublished). The ET cells were grown in DMEM, supplemented with 10% fetal calf serum, 2 mM Glutamine, Penicillin (100 IU/mL)/Streptomycin (100 μg/mL), 1× nonessential amino acids, and 250 μg/mL G418 (“Geneticin”). They were all available through Life Technologies (Bethesda, Md.). The cells were plated at 0.5−1.0×10^4 cells/well in the 96 well plates and incubated for 24 hrs before adding the test compounds. […] Luciferase activity was measured 48-72 hours later by adding a lysis buffer and the substrate (Catalog number Glo-lysis buffer E2661 and Bright-Glo luciferase system E2620 Promega, Madison, Wis.). Cells should not be too confluent during the assay. Percent inhibition of replication was plotted relative to no compound control. Under the same condition, cytotoxicity of the compounds was determined using cell proliferation reagent, WST-1 (Roche, Germany). The compounds showing antiviral activities, but no significant cytotoxicities were chosen to determine the EC50 and TC50, the effective concentration and toxic concentration at which 50% of the maximum inhibition is observed. For these determinations, 6 dilutions of each compound were used. Compounds were typically diluted 3 fold to span a concentration range of 250 fold. EC50 and similarly TC50 values were calculated by fitting % inhibition at each concentration to the following equation:
% inhibition=100%/[(EC50/[I])^b+1]
where b is Hill's coefficient.
(In general: Replicon systems follow genome replication, usually without infectious particles.)
In turn, `CCOc1ccc(-c2cc(Cn3cc4nc(-c5ccccc5F)nc-4cn3)on2)cc1` [Compound 110, 5-[3-(4-Ethoxy-phenyl)-isoxazol-5-ylmethyl]-2-(2-fluoro-phenyl)-55H-imidazo[4,5-d]pyridazine] gave an inhibition at 5 µM of 99.4%. Consider `CCCOc1ccc(-c2cc(Cn3cc4nc(-c5ccccc5F)nc-4cn3)on2)cc1` [Compound 117, 2-(2-Fluoro-phenyl)-5-[3-(4-propoxy-phenyl)-isoxazol-5-ylmethyl]-5H-imidazo[4,5-d]pyridazine], for which the inhibition at 5 µM was found to be 99.8%.

Staying with this assay, now noted: Hepatitis C virus; tested at 10 μM; inhibition of replication relative to no compound control; ET replicon cells, luciferase 48-72 hours; read-out: % inhition at 10 μM.
With `COCCOc1ccc(-c2cc(Cn3cc4nc(-c5cccc(F)c5F)nc-4cn3)on2)c(C(F)(F)F)c1` [Compound 320, 2-(2,3-Difluoro-phenyl)-5-{3-[4-(2-methoxy-ethoxy)-2-trifluoromethyl-phenyl]-isoxazol-5-ylmethyl}-5H-imidazo[4,5-d]pyridazine], the inhibition at 10 µM worked out at 99.8%. In the case of `Fc1ccc(F)c(-c2nc3cnn(Cc4cc(-c5ccc(C(F)(F)F)cc5C(F)(F)F)no4)cc-3n2)c1` [Compound 299, 5-[3-(2,4-Bis-trifluoromethyl-phenyl)-isoxazol-5-ylmethyl]-2-(2,5-difluoro-phenyl)-5H-imidazo[4,5-d]pyridazine], the inhibition at 10 µM was found to be 79.3%. Still for that read-out and setting: next, `Fc1cccc(-c2nc3cnn(Cc4cc(-c5ccc(C(F)(F)F)cc5)on4)cc-3n2)c1F` [Compound 241, 2-(2,3-Difluoro-phenyl)-5-[5-(4-trifluoromethyl-phenyl)-isoxazol-3-ylmethyl]-5H-imidazo[4,5-d]pyridazine]: 99.7%. On to `FC(F)(F)c1ccc(-c2cc(Cn3cc4nc(NCc5ccccc5)nc-4cn3)on2)c(C(F)(F)F)c1` [Compound 251, Benzyl-{5-[3-(2,4-bis-trifluoromethyl-phenyl)-isoxazol-5-ylmethyl]-5H-imidazo[4,5-d]pyridazin-2-yl}-amine], for which the inhibition at 10 µM came out at 97.7%.

With `CC(C)Cc1ccc(-c2cc(Cn3cc4nc(-c5cccc(F)c5F)nc-4cn3)on2)c(C(F)(F)F)c1` [Compound 323, 2-(2,3-Difluoro-phenyl)-5-[3-(4-isobutyl-2-trifluoromethyl-phenyl)-isoxazol-5-ylmethyl]-5H-imidazo[4,5-d]pyridazine], the inhibition at 10 µM amounted to 100%. Still for that read-out and setting: next, `Fc1cccc(-c2nc3ccn(Cc4cc(-c5ccc(C(F)(F)F)cc5)no4)nc-3n2)c1F` [Compound 246, 6-(2,3-Difluoro-phenyl)-2-[3-(4-trifluoromethyl-phenyl)-isoxazol-5-ylmethyl]-2H-imidazo[4,5-c]pyridazine]: 62.1%; `O=C(COc1ccc(-c2cc(Cn3cc4nc(-c5cccc(F)c5F)nc-4cn3)on2)cc1)NC1CC1` [Compound 271, N-Cyclopropyl-2-(4-{5-[2-(2,3-difluoro-phenyl)-imidazo[4,5-d]pyridazin-5-ylmethyl]-isoxazol-3-yl}-phenoxy)-acetamide]: 2.27%; `Fc1cc(-c2cc(Cn3cc4nc(-c5cccc(F)c5F)nc-4cn3)on2)ccc1OC(F)(F)F` [Compound 168, 2-(2,3-Difluoro-phenyl)-5-[3-(3-fluoro-4-trifluoromethoxy-phenyl)-isoxazol-5-ylmethyl]-5H-imidazo[4,5-d]pyridazine]: 99.2%.

For `Fc1cccc(-c2nc3cnn(Cc4cc(-c5ccc(OCc6cccnc6)cc5)no4)cc-3n2)c1F` [Compound 179, 2-(2,3-Difluoro-phenyl)-5-{3-[4-(pyridin-3-ylmethoxy)-phenyl]-isoxazol-5-ylmethyl}-5H-imidazo[4,5-d]pyridazine], the inhibition at 10 µM amounted to 99.9%. In the case of `N#Cc1ccc(-c2cc(Cn3cc4nc(-c5cccc(F)c5F)nc-4cn3)on2)cc1` [Compound 213, 4-{5-[2-(2,3-Difluoro-phenyl)-imidazo[4,5-d]pyridazin-5-ylmethyl]-isoxazol-3-yl}-benzonitrile], the inhibition at 10 µM stood at 98.1%. Regarding `COC(=O)c1cc(OC)ccc1-c1cc(Cn2cc3nc(-c4cccc(F)c4F)nc-3cn2)on1` [Compound 198, 2-{5-[2-(2,3-Difluoro-phenyl)-imidazo[4,5-d]pyridazin-5-ylmethyl]-isoxazol-3-yl}-5-methoxy-benzoic acid methyl ester], the inhibition at 10 µM stood at 50.3%. Still for that read-out and setting: next, `COc1ccc(-c2nc(Cn3cc4nc(-c5ccccc5F)nc-4cn3)no2)cc1` [Compound 240, 2-(2-Fluoro-phenyl)-5-[5-(4-methoxy-phenyl)-[1,2,4]oxadiazol-3-ylmethyl]-5H-imidazo[4,5-d]pyridazine]: 16.4%; `CN(C)CCOc1ccc(-c2cc(Cn3cc4nc(-c5cccc(F)c5F)nc-4cn3)on2)cc1` [Compound 161, [2-(4-{5-[2-(2,3-Difluoro-phenyl)-imidazo[4,5-d]pyridazin-5-ylmethyl]-isoxazol-3-yl}-phenoxy)-ethyl]-dimethyl-amine]: 54.6%; `COc1cc(-c2cc(Cn3cc4nc(-c5cccc(F)c5F)nc-4cn3)on2)ccc1OC(F)F` [Compound 163, 5-[3-(4-Difluoromethoxy-3-methoxy-phenyl)-isoxazol-5-ylmethyl]-2-(2,3-difluoro-phenyl)-5H-imidazo[4,5-d]pyridazine]: 62%. As to `CCCCc1ccc(-c2cc(Cn3cc4nc(-c5cccc(F)c5F)nc-4cn3)on2)c(C(F)(F)F)c1` [Compound 186, 5-[3-(4-Butyl-2-trifluoromethyl-phenyl)-isoxazol-5-ylmethyl]-2-(2,3-difluoro-phenyl)-5H-imidazo[4,5-d]pyridazine], the inhibition at 10 µM was determined as 100%. Still for that read-out and setting: next, `CCOc1ccc(-c2cc(Cn3cc4nc(-c5ccccc5F)nc-4cn3)on2)cc1` [Compound 110, 5-[3-(4-Ethoxy-phenyl)-isoxazol-5-ylmethyl]-2-(2-fluoro-phenyl)-55H-imidazo[4,5-d]pyridazine]: 97.4%; `Fc1cccc(-c2nc3cnn(Cc4cc(-c5ccc(OCc6ccncc6)cc5)no4)cc-3n2)c1F` [Compound 148, 2-(2,3-Difluoro-phenyl)-5-{3-[4-(pyridin-4-ylmethoxy)-phenyl]-isoxazol-5-ylmethyl}-H-imidazo[4,5-d]pyridazine]: 100%; `CCCOc1ccc(-c2cc(Cn3cc4nc(-c5ccccc5F)nc-4cn3)on2)cc1` [Compound 117, 2-(2-Fluoro-phenyl)-5-[3-(4-propoxy-phenyl)-isoxazol-5-ylmethyl]-5H-imidazo[4,5-d]pyridazine]: 99.1%.

Consider `COc1ccc(-c2cc(Cn3cc4nc(-c5cccc(F)c5F)nc-4cn3)on2)c(F)c1` [Compound 313, 2-(2,3-Difluoro-phenyl)-5-[3-(2-fluoro-4-methoxy-phenyl)-isoxazol-5-ylmethyl]-5H-imidazo[4,5-d]pyridazine], for which the inhibition at 10 µM was 99.2%. On to `Fc1cccc(-c2nc3cnn(Cc4noc(-c5ccc(C(F)(F)F)cc5)n4)cc-3n2)c1F` [Compound 230, 2-(2,3-Difluoro-phenyl)-5-[5-(4-trifluoromethyl-phenyl)-[1,2,4]oxadiazol-3-ylmethyl]-5H-imidazo[4,5-d]pyridazine], for which the inhibition at 10 µM amounted to 35.8%. Turning to `FC(F)(F)c1ccc(-c2nc3cnn(Cc4cc(-c5ccc(C(F)(F)F)cc5C(F)(F)F)no4)cc-3n2)cc1` [Compound 135, 5-[3-(2,4-Bis-trifluoromethyl-phenyl)-isoxazol-5-ylmethyl]-2-(4-trifluoromethyl-phenyl)-5H-imidazo[4,5-d]pyridazine], the inhibition at 10 µM was 0.79%.

`Cc1ccc(-c2cc(Cn3cc4nc(-c5cccc(F)c5F)nc-4cn3)on2)cc1` [Compound 187, 2-(2,3-Difluoro-phenyl)-5-(3-p-tolyl-isoxazol-5-ylmethyl)-5H-imidazo[4,5-d]pyridazine]: the inhibition at 10 µM is 99.7%.
